Measured values taken from ChEMBL document CHEMBL1130640, “Lactate cannot substitute for alanine in d4T-based anti-HIV nucleotide prodrugs--despite efficient esterase-mediated hydrolysis” (Bioorg Med Chem Lett, 1998).

What was measured:
Settings in all cases: Homo sapiens
CEM-TK(-) [1] = assay: Compound was tested for anti-HIV-2 activity in CEM/TK- cell line.; type: functional, cell-based
CCRF-CEM [2] = assay: Compound was tested for anti-HIV-2 activity in CEM/0 cell line.; type: functional, cell-based
CCRF-CEM [3] = assay: Compound was tested for anti-HIV-1 activity in CEM/0 cell line.; type: functional, cell-based
CCRF-CEM [4] = assay: Compound was tested for cytostatic activity in CEM cell line.; type: functional
CCRF-CEM [5] = assay: Compound was tested for anti-HIV-2 activity in CEM/0 cell line; type: functional, cell-based
CCRF-CEM [6] = assay: Compound was tested for cytostatic activity in CEM cell line; type: functional
CCRF-CEM [7] = assay: Compound was tested for anti-HIV-1 activity in CEM/0 cell line; type: functional, cell-based
CEM-TK(-) [8] = assay: Compound was tested for anti-HIV-2 activity in CEM/TK- cell line; type: functional, cell-based

Row | EC50 (CCRF-CEM [5]) [µM] | EC50 (CCRF-CEM [7]) [µM] | EC50 (CEM-TK(-) [8]) [µM] | Compound | EC50 (CEM-TK(-) [1]) [µM] | EC50 (CCRF-CEM [2]) [µM] | EC50 (CCRF-CEM [3]) [µM] | CC50 (CCRF-CEM [4]) [µM] | CC50 (CCRF-CEM [6]) [µM]
1 |  |  |  | COC(=O)C(C)OP(=O)(OCC1C=CC(n2cc(C)c(=O)[nH]c2=O)O1)Oc1ccccc1 (centres undefined) | > 250 | 5 | 4 | ≥ 250 | 
2 | 1.2 | 0.25 | > 100 | Cc1cn([C@H]2C=C[C@@H](CO)O2)c(=O)[nH]c1=O [STAVUDINE] |  |  |  |  | > 100
3 |  |  |  | COC(=O)C(C)NP(=O)(OC[C@@H]1C=C[C@H](n2cc(C)c(=O)[nH]c2=O)O1)Oc1ccccc1 (some centres undefined) | 0.075 |  |  | > 100 | 
4 |  |  |  | COC(=O)CNP(=O)(OCC1C=CC(n2cc(C)c(=O)[nH]c2=O)O1)Oc1ccccc1 (centres undefined) | 7 |  |  | ≥ 250 | 
5 |  |  |  | CCOC(=O)COP(=O)(OCC1C=CC(n2cc(C)c(=O)[nH]c2=O)O1)Oc1ccccc1 (centres undefined) | 150 | 12.5 | 12.5 | ≥ 250 | 
6 |  |  |  | COC(=O)COP(=O)(OCC1C=CC(n2cc(C)c(=O)[nH]c2=O)O1)Oc1ccccc1 (centres undefined) | > 250 | 50 | 27.5 | > 250 | 
7 |  |  |  | CCOC(=O)C(C)OP(=O)(OCC1C=CC(n2cc(C)c(=O)[nH]c2=O)O1)Oc1ccccc1 (centres undefined) | 160 | 23 | 28 | > 250 | 
